# Experimental data: paper PMC9490060, “Synthesis and evaluation of anticancer activity of quillaic acid derivatives: A cell cycle arrest and apoptosis inducer through NF-κB and MAPK pathways” (Frontiers in Chemistry, 2022)
# Experiments:
# HCT116 cells = assay: Cell cycle analysis by flow cytometry; format: cell-based, human; conditions: HCT116, 30 μM, 24 h; control 53.9
# Experimental: Inoculate HCT116 cells in a 6-well plate (5.0 × 10^5 cells per well) and incubate at 37°C for 24 h. The exponentially growing cells were then incubated with compound E at 10 and 30 μM. After 24 h, untreated cells (control) or cells treated with compound E were centrifuged at 1,000 rpm for 15 min, and then fixed in 70% ethanol at […] for at least 24 h. The cells were then resuspended in phosphate buffered saline (PBS) containing 0.1 mg/ml RNase A and 5 mg/ml PI. The DNA content of cells used for cell cycle distribution analysis was measured by flow cytometry, and analyzed using FACSalibur flow cytometer and Cell Quest software (Becton-Dickinson, Franklin Lakes, NJ, United States).
# [1] = system: MCF-7 (human breast cancer cell line); assay: MTT anti-proliferative assay, MCF-7; format: cell-based; conditions: means ± SD, n = 3
# How it was run: (§1)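 Cells seeded at 1 × 10^4–1.2 × 10^4 per well were allowed to adhere 24 h, then exposed 48 h at 37 °C, 5% CO2 to compound at 1.25, 2.5, 5 and 10 μM (DMSO ≤0.1%). MCF-7 and HepG2 were grown in DMEM, HCT116 and BEL7402 in RPMI 1640, each with 10% FBS. MTT (final 2 mg/ml) was added for 4 h; formazan was dissolved in DMSO and read at 492 nm.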
# [2] = system: HepG2 (human hepatocellular carcinoma cell line); assay: MTT anti-proliferative assay, HepG2; format: cell-based; conditions: means ± SD, n = 3
# How it was run: as §1
# Bax = assay: Western blot, Bax expression; format: cell-based, human; conditions: HCT116, 10 μM, 24 h
# Experimental: The Bcl-2 protein family (including the anti-apoptotic protein Bcl-2 and the pro-apoptotic protein Bax) is a group of key apoptotic proteins that play an important role in the regulation of apoptosis ([Han et al., 2013]; [Zhang and Saghatelian, 2013]; [Zheng et al., 2021]). HCT116 cells were treated with different concentrations (2.5, 5, and 10 μM) of E to detect the expression of Bax and Bcl-2 proteins.
# (§2) FIGURE 7 Effect of compound E on the levels of Bax, and Bcl-2 in HCT116 cells. Cells were pretreated with the various concentrations of compound E (2.5, 5 and 10 μM) for 24 h. The expression of Bax, and Bcl-2 were analyzed by Western blot. ***p < 0.001, **p < 0.01, *p < 0.05 vs. control group. The error bars represent the mean ± SD for three independent experiments.
# (§3) HCT116 cells were cultured with different concentrations of compound E for 24 h. Then, the floating cells were collected and washed twice with ice-cold PBS. Add cold RIPA buffer. After the cells were lysed on ice for 20 min, the lysate was centrifuged at 12,000 rpm for 15 min at 4°C. The BCA method determines the protein concentration. Separated by SDS/PAGE electrophoresis and transferred to a nitrocellulose filter membrane for Western blot analysis. The membrane was blocked with PBS containing 5% skim milk at room temperature for 2 h. […] The protein is detected by electrochemiluminescence (Bio-Rad, CA, United State).
# IκB = assay: Western blot, NF-κB signaling pathway: IκB; format: cell-based, human; conditions: HCT116, 2.5, 5 and 10 μM, 24 h
# Description: The NF-κB pathway plays an important role in a variety of cellular functions, including cell growth, apoptosis, and tumorigenesis ([Hwang et al., 2012]). Interfering with NF-κB signaling can inhibit tumor cell proliferation and metastasis ([Yenmis et al., 2021]). Therefore, NF-κB inhibitors are considered as potential anticancer drugs ([Wang et al., 2017]).
# as §2, with “8” for “7”, “NF-κB signaling pathway” for “the levels of Bax, and Bcl-2”, “phospho-NF-κB p65, NF-κB p65, phospho-IκB, IκB” for “Bax, and Bcl-2”
# as §3
smiles,measurement,setting,value
"CC1(C)CC[C@]2(C(=O)OCCn3nnnc3-c3ccccc3)[C@H](O)C[C@]3(C)C(=CC[C@@H]4[C@@]5(C)CC[C@H](O)[C@@](C)(C=O)[C@@H]5CC[C@]43C)[C@@H]2C1 [Compound E, 2-(5-phenyl-1H-tetrazol-1-yl)ethyl (4aR,5R,6aS,6bR,8aR,9S,10S,12aR,12bR,14bS)-9-formyl-5,10-dihydroxy-2,2,6a,6b,9,12a-hexamethyl-1,3,4,5,6,6a,6b,7,8,8a,9,10,11,12,12a,12b,13,14b-octadecahydropicene-4a (2H)-carboxylate]",%G1,HCT116 cells,81.2%
same,IC50 values MCF-7,[1]; 48 h incubation,strong activity
same,IC50,"[1]; Homo sapiens, MCF7, 48 h incubation",7.59 ± 1.78 µM
same,IC50 values HepG2,[2]; 48 h incubation,strong activity
same,IC50,"[2]; Homo sapiens, HepG2, 48 h incubation",8.89 ± 2.24 µM
same,expression of Bax,Bax,significantly increased
same,phosphorylation and degradation of IκB,IκB,inhibited the phosphorylation and degradation of IκB
same,melting point,,196 to 198 °C
